The values that follow come from paper PMC10707468, “Pharmacokinetics of Novel Dopamine Transporter Inhibitor CE-123 and Modafinil with a Focus on Central Nervous System Distribution” (International Journal of Molecular Sciences, 2023).

Each structure is given as a SMILES string.

One data set relates to CYP1A2. As to conditions: ref Robertson et al. (2000) [72]; cited from earlier work.
In a further data set the test system is CYP2B6. Particulars: ref Robertson et al. (2000) [72]; cited from earlier work.
The target of a further data set is CYP2C19 (Homo sapiens, UniProt P33261). As to conditions: in HLMs; ref Robertson et al. (2000) [72]; cited from earlier work.
A further data set has as its target CYP2C9 (Homo sapiens, UniProt P11712). Particulars: primary cell cultures of human hepatocytes; ref Robertson et al. (2000) [72]; cited from earlier work.
For the next data set, the system named is male Sprague-Dawley rats. More on the design: method as in PMID 29230168, PMID 29410048, PMID 33940050. Particulars: cited from earlier work.
The subject of data set [1] is cerebEND in vitro model of the blood–brain barrier. Particulars: cerebEND; cited from earlier work.
Data set [2] can be described thus: In vivo rat tissue biodistribution / neuroPK study, 4 h intravenous constant infusion. Also on record: species or system Sprague-Dawley rats. Particulars: for metabolite detection in rat samples: after 4 h iv infusion 20 mg/kg of parent. As for the experimental part: The results are summarized in Figure 4 and Table S2 within Supplementary Materials.
In order to minimize the usage of animals and gain high confidence in the tissue distribution, a 4 h constant intravenous infusion study was designed based on the systemic pharmacokinetic parameters determined elsewhere. The catheters were surgically implanted a day before the PK experiment. The rats (n = 3 per compound) were then individually placed into a CMA 120 system (CMA, Solna, Sweden). […] A dose of 20 mg/kg was administered as a combination of an initial short 10 min infusion as a loading dose followed by a constant infusion up to 4 h, targeting a steady-state total plasma concentration of around 1000 ng/mL for each compound (based on the pilot study results). Blood was collected into heparinized Eppendorf tubes via a femoral artery catheter at 0 (before infusion starts) 1, 2, 3, and 4 h after the infusion started and immediately centrifuged at 10,000 rpm for 5 min at +4 °C. Plasma was then collected and kept at −20 °C. At 4 h, the rats were anesthetized via inhalation of 2.5% isoflurane (Abbot Scandinavia, Solna, Sweden), balanced with 1.5 L/min oxygen, after which the terminal blood and tissue samples were collected. […] The tissue samples (brain, spinal cord, liver, and kidney) were rapidly removed, pre-weighed into a 2 mL hard tissue homogenizing tube with mini-beads, and subsequently homogenized in 2 volumes of MQ water using a 4-Place Bead Mill Homogenizer (VWR, Stockholm, Sweden) at the maximal speed for 2 min and thereafter kept at +4 °C. The plasma and tissue homogenate samples were stored at −20 °C until LC–MS analysis.
For all the rat plasma and CSF samples, an aliquot of 50 µL was spiked with 50 µL of 4% PA in water containing the IS solution to disrupt the drug–protein binding. For all rat tissue samples (brain, spinal cord, liver, and kidney), an aliquot of 50 µL was spiked with 50 µL ice-cold ACN containing the IS solution for protein precipitation. The samples were vortexed and spun down for 10 min (3000× g, 4 °C) and 25 µL of clear supernatant was diluted with 225 µL 0.1% FA in water to achieve 10% of ACN in the solution. SPE clean-up was performed using an Oasis PRiME HLB µElution 96-well plate, 3 mg (Waters Corporation, Vienna, Austria). The SPE cartridges were preconditioned and equilibrated with 1 × 200 µL ACN and 0.1% FA in water each. The samples were loaded onto the cartridges and washed with 2 × 200 µL 0.1% FA in water and 1 × 200 µL ACN/0.1% FA in water 10:90 (v:v). The analytes were eluted from the SPE cartridge into a collection plate with 2 × 25 µL ACN/0.1% FA in water 70:30 (v:v). All the samples were diluted with 50 µL of 0.1% FA in water and 10 µL of sample was injected onto the LC–HRMS system.
All samples, blanks, standards, and quality control samples in the respective matrices were analyzed on a UHPLC system (Dionex UltiMate 3000 RSLC series system, Thermo Fisher Scientific, Inc., Dreieich, Germany) coupled with a high-resolution mass spectrometer (maXis HD Q-TOF, Bruker Daltonics, Bremen, Germany) equipped with a heated electrospray ionization (ESI) source. Reversed-phase chromatographic separation was performed on a Kinetex Phenyl-Hexyl column (2.6 µm, 2.1 × 50 mm, Phenomenex, Torrance, CA, USA), equipped with a precolumn (2.6 µm, Phenomenex, Torrance, CA, USA), at a flow rate of 0.4 mL/min. Eluent A was water containing 0.1% FA and eluent B ACN. A multi-step gradient was optimized as follows: the initial mobile phase composition (5% eluent B) was held constant for 1 min, followed by a linear increase to 30% eluent B until minute 1.5, to 40% eluent B until minute 5.5, and to 95% eluent B until minute 6. After a hold time of 2 min, the column was re-equilibrated for 2.5 min at the initial conditions (5% eluent B). The column compartment and the autosampler were maintained at 40 °C and at 8 °C, respectively. […]

Data set [3] can be described thus: In vitro metabolic stability in human liver microsomes. Type of data set: in vitro ADME. As to conditions: R-modafinil 1, 5, 10, 50 µM. How it is done: An in vitro metabolism assay to study the phase I metabolism in the HLMs was in-house-developed. Optimization of the protocol included the test compound concentration (1, 5, 10 m and 50 µM) and extraction solvents (ACN and MeOH). […] The metabolic assay was initiated by the addition of 10 mM NADPH to the reaction solution and terminated after 0, 2.5, 5, 15, 30, 45, and 60 min via the addition of 200 µL of ice-cold MeOH containing the IS solution. The samples were than vortexed and spun for 15 min (14,000× g, 4 °C). The supernatant was collected, evaporated to dryness using the Concentrator plus (Eppendorf), and reconstituted with 100 µL of ACN/0.1% FA in water 10:90 (v:v). To ensure that the assay was performing adequately, the incubation of 1 µM diazepam at the same assay conditions as described was conducted, and the formation of its metabolites temazepam and nordazepam was monitored. A negative control included the absence of NADPH, the test compound, or HLMs during assay. […] The metabolic stability curves of the tested compounds were established by plotting the incubation time against the natural logarithm of the % parent drug remaining. The slope (k) of the linear part was utilized for the in vitro half-life (t1/2, min) as ln2/k. The V (µL/mg) was calculated as the volume of the reaction solution (100 µL) divided by the protein amount in the incubation (0.5 mg). The protein amount was predetermined by the supplier and the content was checked by using a Pierce™ BCA Protein Assay Kit (Thermo Fisher Scientific, Vienna, Austria) for each freshly opened tube. The intrinsic clearance (CLint, µL/min/mg) was calculated according to the following equation:(7) CLint=0.693/t1/2·V […]
In general terms: Liver microsomes are a subcellular fraction often used to study metabolism.

Data set [4] in a line: In vitro plasma stability assay. It counts as in vitro ADME. Particulars: rat plasma, 37 °C. As for the experimental part: In vitro plasma stability assay was used in the scope of the validation studies. Briefly, 40 μL of blank rat plasma or blank rat plasma containing 10% DMF as an inhibitor was first pre-warmed for 5 min at 37 °C using a Thermomixer® comfort (Eppendorf, Hamburg, Germany). […] The reaction was terminated after 0, 1, 2, and 4 h, via the addition of 50 μL of ice-cold ACN containing the IS solution. The samples were centrifuged for 10 min at 3000× g at 4 °C. The supernatant of all samples was diluted with 0.1% FA in water, 1:2 (v:v), and 10 µL of the sample was injected onto the LC–HRMS system.

CYP2C9, sequence (P11712 whole entry): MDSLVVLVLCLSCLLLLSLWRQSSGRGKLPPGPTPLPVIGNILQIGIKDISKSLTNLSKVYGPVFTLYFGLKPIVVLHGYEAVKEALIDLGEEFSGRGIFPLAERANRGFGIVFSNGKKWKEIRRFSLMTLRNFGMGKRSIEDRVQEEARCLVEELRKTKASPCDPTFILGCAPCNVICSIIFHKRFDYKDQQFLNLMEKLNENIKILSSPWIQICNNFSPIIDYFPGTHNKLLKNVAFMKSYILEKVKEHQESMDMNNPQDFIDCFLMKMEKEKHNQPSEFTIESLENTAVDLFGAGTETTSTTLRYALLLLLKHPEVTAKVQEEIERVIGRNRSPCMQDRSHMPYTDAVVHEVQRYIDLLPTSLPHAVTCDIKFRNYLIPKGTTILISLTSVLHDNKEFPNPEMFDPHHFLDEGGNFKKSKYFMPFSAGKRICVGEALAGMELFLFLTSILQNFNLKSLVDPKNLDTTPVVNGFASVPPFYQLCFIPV
CYP2C19, sequence (P33261 whole entry): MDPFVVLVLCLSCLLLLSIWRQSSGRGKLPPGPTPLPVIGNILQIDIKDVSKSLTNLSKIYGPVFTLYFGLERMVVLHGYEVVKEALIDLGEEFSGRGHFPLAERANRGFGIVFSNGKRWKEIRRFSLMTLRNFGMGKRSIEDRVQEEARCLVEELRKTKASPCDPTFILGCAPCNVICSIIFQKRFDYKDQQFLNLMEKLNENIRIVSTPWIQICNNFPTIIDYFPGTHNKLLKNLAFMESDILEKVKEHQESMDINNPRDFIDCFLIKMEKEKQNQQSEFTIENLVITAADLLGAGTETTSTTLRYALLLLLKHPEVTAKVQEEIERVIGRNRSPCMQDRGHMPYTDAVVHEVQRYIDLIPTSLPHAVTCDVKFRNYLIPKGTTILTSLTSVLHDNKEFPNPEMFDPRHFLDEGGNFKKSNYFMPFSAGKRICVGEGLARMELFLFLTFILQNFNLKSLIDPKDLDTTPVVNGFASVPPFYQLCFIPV

For `NC(=O)C[S+]([O-])C(c1ccccc1)c1ccccc1` (stereo not shown) [modafinil, 2-[(Diphenylmethyl)sulfinyl]acetamide], the CYP1A2 induction result with CYP1A2 is “modestly induces”. The CYP2B6 induction entry with CYP2B6 is given as “modestly induces”. The CYP2C19 inhibition entry at CYP2C19 was “reversible inhibition”. Further, at CYP2C9, the CYP2C9 activity result is “apparent suppression”.

As for `[O-][S+](c1cncs1)C(c1ccccc1)c1ccccc1` (stereo not shown) [CE-123, 5-[(Diphenylmethyl)sulfinyl]thiazole], the cognitive flexibility entry with male Sprague-Dawley rats (male Sprague-Dawley rats, without impulsive responding, compared to R-modafinil) is given as “enhance the cognitive flexibility”. In the data set on male Sprague-Dawley rats (rats, doses that did not change locomotor activity), the “memory acquisition and memory retrieval” value is “enhance memory acquisition and memory retrieval”. Further, in data set [1], the “ability to cross in vitro model of the BBB” value is on record as “could penetrate the BBB in a similar manner to diazepam”.

In the case of `O=C(O)C[S+]([O-])C(c1ccccc1)c1ccccc1` (stereo not shown) [modafinic acid], the “metabolite detection in rat samples” value in [2] was “detected together in the plasma, CSF, liver, and kidneys”. For the same molecule, in data set [3], the “metabolite formation during HLM incubation of R-modafinil” value was “not detected”. In data set [4], the “metabolite detection during plasma incubation of R-modafinil” value was “detected at the 2 and 4 h time points”.

Take `NC(=O)CS(=O)(=O)C(c1ccccc1)c1ccccc1` [modafinil sulfone]: in data set [2], the “metabolite detection in rat samples” value is “detected together in the plasma, CSF, liver, and kidneys”. In addition, in [2] (after 4 h iv infusion of R-modafinil 20 mg/kg, S/N below LOQ), the “detection in rat brain and spinal cord tissue” value is “detected”. Moreover, the “metabolite formation during HLM incubation of R-modafinil” value in [3] is reported as “observed at all concentrations”.
